# Test results published in PubChem BioAssay (NCI).
# Where “and” joins values, the source holds several entries; their conditions need not be identical. Identical values can stand only once.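 Following 48 hours of exposure in 96-well plates, responses at five concentrations were used to interpolate endpoints linearly. GI50 = concentration required for 50% inhibition of growth. Definition used: TGI = concentration required for complete inhibition of growth.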
# Key:
# Assay in all cases: growth of human tumour cells (NCI), 48 h
# MDA-MB-231 breast = test system: MDA-MB-231 breast
# OVCAR-3 ovarian = test system: OVCAR-3 ovarian
# MCF7 breast = test system: MCF7 breast
# SK-MEL-5 melanoma = test system: SK-MEL-5 melanoma
# SR leukemia = test system: SR leukemia
# BT-549 breast = test system: BT-549 breast
# HOP-62 NSCLC = test system: HOP-62 NSCLC
# A498 renal = test system: A498 renal
# SNB-19 CNS = test system: SNB-19 CNS
# DU-145 prostate = test system: DU-145 prostate
Compound,GI50 (MDA-MB-231 breast),TGI (MDA-MB-231 breast),GI50 (OVCAR-3 ovarian),TGI (OVCAR-3 ovarian),GI50 (MCF7 breast),TGI (MCF7 breast),GI50 (SK-MEL-5 melanoma),TGI (SK-MEL-5 melanoma),GI50 (SR leukemia),TGI (SR leukemia),GI50 (BT-549 breast),TGI (BT-549 breast),GI50 (HOP-62 NSCLC),TGI (HOP-62 NSCLC),GI50 (A498 renal),TGI (A498 renal),GI50 (SNB-19 CNS),TGI (SNB-19 CNS) [µM],GI50 (DU-145 prostate),TGI (DU-145 prostate) [µM]
CN(C)C(=O)OCc1nc2c(N3CCOCC3)nc(-c3ccccc3)nc2n1C,1.25 µM,2.62 µM,0.203 µM,0.433 µM,0.427 µM,2.09 µM,1.42 µM,2.73 µM,0.252 µM,2.98 µM,1.04 µM,2.32 µM,1.72 µM,4.46 µM,1.34 µM,2.68 µM,1.53 µM,2.93,1.05 µM,2.28
Cc1ccc(Nc2cc(Cl)c([N+](=O)[O-])cc2[N+](=O)[O-])cc1,4.42 µM,15.8 µM,3.33 µM,7.85 µM,2.7 µM,7.68 µM,3.19 µM,9.51 µM,0.927 µM,18.1 µM,3.72 µM,11.8 µM,5.82 µM,16.2 µM,13.3 µM,26.1 µM,6.33 µM,17.7,2.95 µM,7.55
CCCCCCCCCC[C@@H](O)[C@@H]1CC[C@@H]([C@@H]2CC[C@@H]([C@@H](O)CCCCCCCCCC[C@H](O)CC3=CC(C)OC3=O)O2)O1 (stereo not given in full),8.01 µM,24.6 µM,1.47 µM,3.34 µM and 22.3 µM,3.52 µM,> 100 µM,,3.11 µM and 2.6 µM,,6.32 µM,,51.6 µM,4.27 µM,15.4 µM,8.48 µM,8.64 µM and 34.9 µM,,24.6,23.5 µM,> 100
c1ccc(CN2CCc3[nH]c4ccccc4c3C2)cc1,,48.9 µM,,> 74.7 µM,,31.9 µM,,31.3 µM,,> 76.6 µM,,> 100 µM,,> 73.5 µM,,88.1 µM,,> 95.7,,78.3
O=C(O)C1CC=CCC1C(=O)Nc1cccc(O)c1 (stereo not given),,> 100 µM,,> 100 µM,,> 100 µM,,> 100 µM,,> 100 µM,,> 100 µM,,> 100 µM,,> 100 µM,,> 100,,> 100
COc1cccc(/C=C/c2nc3c(cnn3-c3ccccc3)c(=O)[nH]2)c1,50 µM,> 100 µM,24.9 µM,> 100 µM,0.467 µM,> 100 µM,> 96.6 µM,> 100 µM,,> 100 µM,> 72.9 µM,> 100 µM,7.19 µM,> 100 µM,> 100 µM,> 100 µM,> 51.9 µM,> 100,> 100 µM,> 100
CO[C@@H]1CCN(c2nccc(Nc3cc4c(C(C)C)ccc(N5CC(CS(C)(=O)=O)[C@H]5C)c4cn3)n2)C[C@@H]1F (stereo not given in full),8.77 µM,> 100 µM,3.07 µM,> 100 µM,3.15 µM,14.8 µM,2.22 µM,5.42 µM,2.87 µM,32.7 µM,4.55 µM,35.4 µM,4.46 µM,> 100 µM,10.1 µM,44.7 µM,5.19 µM,> 100,2.45 µM,45.1
Cc1cc(-c2nnc(/C=C/c3ccc4c(c3)OCO4)o2)n[nH]1,16.9 µM,> 50 µM,4.6 µM,20.7 µM,15.1 µM,> 50 µM,13 µM,39 µM,2.39 µM,48.3 µM,6.78 µM,39.3 µM,17.5 µM,> 50 µM,7.54 µM,40.7 µM,32.6 µM,> 50,9.17 µM,29.4
Nc1c(C(=O)Nc2ccccn2)sc2nc3c(cc12)C(O)CCC3 (stereo not given),18.3 µM,> 50 µM,1.35 µM,4.11 µM,1.02 µM,> 50 µM,1.47 µM,> 50 µM,0.179 µM,> 50 µM,3.47 µM,> 50 µM,2.9 µM,> 50 µM,1.53 µM,> 50 µM,2.13 µM,> 50,1.94 µM,> 50
CC1=C(/C=C/C(=O)CC(=O)/C=C/C2=C(C)CCCC2(C)C)C(C)(C)CCC1,52.3 µM,> 100 µM,32.1 µM,> 100 µM,22.7 µM,72.9 µM,22.1 µM,91.8 µM,11.9 µM,40.4 µM,33.9 µM,> 100 µM,32.3 µM,> 100 µM,51.7 µM,> 100 µM,33.2 µM,> 100,14.3 µM,> 100
O=C1CC[C@H](N2Cc3c(OCc4ccc(CN5CCOCC5)cc4)cccc3C2=O)C(=O)N1,> 100 µM,> 100 µM,> 100 µM,> 100 µM,> 100 µM,> 100 µM,> 100 µM,> 100 µM,4.83 µM,> 100 µM,98.9 µM,> 100 µM,> 100 µM,> 100 µM,> 100 µM,> 100 µM,> 100 µM,> 100,> 100 µM,> 100
COCCOCCOCc1n(Cc2ccc3ccccc3c2)c2ccccc2[n+]1Cc1ccc2ccccc2c1,0.38 µM,1.64 µM,0.322 µM,1.48 µM,0.325 µM,1.45 µM,0.216 µM,0.544 µM,0.36 µM,1.6 µM,0.366 µM,1.53 µM,1.17 µM,2.59 µM,0.92 µM,2.19 µM,0.377 µM,1.59,0.766 µM,2.14
CN1CCN(c2ccc(OC(F)(F)F)c(Nc3ncc4c(n3)-c3c(c(C(N)=O)nn3CCO)CC4)c2)CC1,0.0755 µM and 0.059 µM,8.61 µM and 3.23 µM,0.037 µM and 0.0424 µM,18.2 µM and > 10 µM,0.0235 µM and 0.0357 µM,15.7 µM and > 10 µM,0.106 µM and 0.309 µM,16.7 µM and > 10 µM,0.0231 µM and 0.03 µM,18.6 µM and > 3.19 µM,0.0875 µM and 0.176 µM,18 µM and > 10 µM,0.0723 µM and 0.0547 µM,27.1 µM and > 10 µM,0.0469 µM and 0.101 µM,0.638 µM and 0.588 µM,0.0611 µM and 0.0674 µM,> 100,0.0349 µM and 0.0417 µM,> 100
Cc1ccc(C(=O)NCCCOc2ccc(N3C(N)=NC(N)=NC3(C)C)cc2Cl)cc1S(=O)(=O)F,> 100 µM,> 100 µM,> 100 µM,> 100 µM,22.4 µM,> 100 µM,4.78 µM,> 100 µM,> 100 µM,> 100 µM,43.1 µM,> 100 µM,> 100 µM,> 100 µM,> 100 µM,> 100 µM,75 µM,> 100,> 100 µM,> 100
CCN(CC)c1c(-c2ccccc2)n[nH]c1C(=O)OC,35.8 µM,60.4 µM,15.1 µM,36.8 µM,23.1 µM,54.4 µM,14.5 µM,27.6 µM,17.2 µM,80.1 µM,16.4 µM,51.1 µM,44.6 µM,> 100 µM,0.519 µM,31.7 µM,46.4 µM,> 100,36.9 µM,> 100
Cc1ccc(S(=O)(=O)OCC#CCOS(=O)(=O)c2ccc(C)cc2)cc1,3.39 µM,11 µM,1.85 µM,3.36 µM,3.21 µM,16.7 µM,3.69 µM,9.96 µM,1.27 µM,3.89 µM,4.57 µM,9.68 µM,2.35 µM,5.69 µM,4.34 µM,11.7 µM,7.11 µM,22.2,1.86 µM,3.76
CCOC(=O)Nc1nc2ccccc2[nH]1,12.9 µM and 19.3 µM,> 100 µM,4.09 µM and 2.19 µM,20.4 µM and 5.61 µM,3.63 µM and 3.15 µM,> 100 µM,3.5 µM and 2.55 µM,> 100 µM,2.64 µM and 1.1 µM,> 100 µM,6.03 µM,> 100 µM,6.08 µM and > 22.9 µM,> 100 µM,2.42 µM and 3.81 µM,> 28.8 µM,10.5 µM and 4.83 µM,> 100,8.58 µM and 4.18 µM,> 100
OB(O)c1ccccc1C#Cc1ccccc1B(O)O,,66.3 µM,,68.6 µM,,31.3 µM,,31.9 µM,,> 100 µM,,47.8 µM,,83.9 µM,,15.6 µM,,67.9,,82.4
